# Data reported in patent publication US20240376148A1, “MEDICAMENT FOR INHIBITING DIETARY OBESITY AND POLYPEPTIDE USED THEREFOR” (INSTITUTE OF ZOOLOGY, CHINESE ACADEMY OF SCIENCES, priority 2022, published 2024).
# Key:
# [1] = cited from earlier work
# [2] = SPF mice feeding experiment (high-fat diet); type: in vivo, C57/B16J mice; conditions: for weekly feed intake vs control HFD group: after 3-4 weeks; for body weight decrease compared with the HFD group: intragastric 0.75 mg-3 mg/Kg once/day, after 8 weeks; for subcutaneous and visceral fat weight (inguinal subcutaneous, epididymis, perirenal) vs HFD group: 8 weeks
# Description: C57/B16J mice were used in the SPF mice experiment. At the beginning of the experiment, C57/B16J mice were 4 weeks old, and each weighed 15±1 g. They were raised in a room with suitable temperature and humidity control, and the light/dark cycle was 12 hours, free diet and drinking water, and fed with standard laboratory feed (also known as growth and reproduction feed, item number SPFSLFZ003, product of SPF (Beijing) Experimental Animal Technology Co., Ltd.). After one week of adaptation, they were randomly assigned to a cage, 4-6 mice per cage.
# A total of 12 treatments were set up, each with 2 cages of C57/B16J mice, and each treatment was subjected to different feeding treatments, specifically as follows:
# NC group (i.e. normal diet group): fed with standard laboratory feed (also known as growth and reproduction feed, SPFSLFZ003), free diet and drinking water, each intragastrically administrated with 0.2 ml solvent daily for 8 weeks.
# HFD group (i.e. high-fat diet group): fed with high-fat diet, the high-fat diet used was rodent feed (containing 60% fat, D12492, formula reference Le Roy, T., et al. Dysosmobacter welbionis is a newly isolated human commensal bacterium preventing diet-induced obesity and metabolic disorders in mice. Gut (2021).), free diet and drinking water, each intragastrically administrated with 0.2 ml solvent daily for 8 weeks.
# (§1) D1 group (i.e. high-fat diet+D1 intragastric administration group): fed with high-fat diet, free diet and drinking water. Intragastrically administrated with synthetic D1, 0.75 mg-3 mg/Kg body weight, 0.2 ml, once/day for 8 weeks.
# (§2) D2 group (i.e. high-fat diet+D2 intragastric administration group): fed with high-fat diet, free diet and drinking water. Intragastrically administrated with synthetic D2, 0.75 mg-3 mg/Kg body weight, 0.2 ml, once/day for 8 weeks.
# D3 group (i.e. high-fat diet+D3 intragastric administration group): fed with high-fat diet, free diet and drinking water. Intragastrically administrated with synthetic D3, 0.75 mg-3 mg/Kg body weight, 0.2 ml, once/day for 8 weeks.
# D4 group (i.e. high-fat diet+D4 intragastric administration group): fed with high-fat diet, free diet and drinking water. Intragastrically administrated with synthetic D4, 0.75 mg-3 mg/Kg body weight, 0.2 ml, once/day for 8 weeks.
# D5 group (i.e. high-fat diet+D5 intragastric administration group): fed with high-fat diet, free diet and drinking water. Intragastrically administrated with synthetic D5, 0.75 mg-3 mg/Kg body weight, 0.2 ml, once/day for 8 weeks.
# D6 group (i.e. high-fat diet+D6 intragastric administration group): fed with high-fat diet, free diet and drinking water. Intragastrically administrated with synthetic D6, 0.75 mg-3 mg/Kg body weight, 0.2 ml, once/day for 8 weeks.
# D7 group (i.e. high-fat diet+D7 intragastric administration group): fed with high-fat diet, free diet and drinking water. Intragastrically administrated with synthetic D7, 0.75 mg-3 mg/Kg body weight, 0.2 ml, once/day for 8 weeks.
# D8 group (i.e. high-fat diet+D8 intragastric administration group): fed with high-fat diet, free diet and drinking water. Intragastrically administrated with synthetic D8, 0.75 mg-3 mg/Kg body weight, 0.2 ml, once/day for 8 weeks.
# D9 group (i.e. high-fat diet+D9 intragastric administration group): fed with high-fat diet, free diet and drinking water. Intragastrically administrated with synthetic D9, 0.75 mg-3 mg/Kg body weight, 0.2 ml, once/day for 8 weeks.
# D10 group (i.e. high-fat diet+D10 intragastric administration group): fed with high-fat diet, free diet and drinking water. Intragastrically administrated with synthetic D10, 0.75 mg-3 mg/Kg body weight, 0.2 ml, once/day for 8 weeks.
# The feed intake was tracked every week. After the experiment, the mice were weighed and photographs were taken to compare the body size of the mice. After that, the mice were killed by cervical dislocation. […]
# [3] = Short-term feed intake experiment of SPF mice; type: in vivo, C57/B16J mice; conditions: after 8 weeks of treatment, starved one day then fed
# Description: A total of 2 treatments were set up, each with one cage of C57/B16J mice, and the high-fat diet used was rodent feed (containing 60 kcal % fat, D12492), and each treatment was subjected to different feeding treatments, specifically as follows:
# HFD group (i.e. high-fat diet group): fed with high-fat diet.
# as §1, §2
# D3 group (i.e. high-fat diet+D3 intragastric administration group): fed with high-fat diet, free diet and drinking water. […]
# According to the above treatment, it was carried out for 8 weeks, and then within 1 week, the mice were starved for one day and then given feed, and the feed intake of the animals in the following day was recorded. That is, food weights were recorded every other day (4 separate measurements) and the average daily intake was determined for each 2-day period and calculated for each individual during the one-week measurement period. […]
# [4] = system: A. muciniphila; assay: qPCR of relative abundance of A. muciniphila in intestinal flora of SPF mice; type: in vivo; conditions: p<0.05
# Description: In order to verify the changes in the relative abundance of A.muciniphila in the intestinal flora of mice fed with other HD, qPCR experiments were performed on the changes of intestinal flora in mice. Faecal bacterial DNA was extracted from the faeces of mice in the NC, HFD, D1, D2, D3, D5, D7, D8, D9 and D10 groups collected in the pre-SPF mice experiments and then the relative abundance of A. muciniphila was determined using qPCR.
# [5] = Phase 3, overweight or obese adults, subcutaneous 2.4 mg/week
Compound,weekly feed intake vs control HFD group [2],body weight decrease compared with the HFD group [2] [%],"subcutaneous and visceral fat weight (inguinal subcutaneous, epididymis, perirenal) vs HFD group [2]",relative abundance of A. muciniphila in the intestinal flora by qPCR [4],further results
C[C@H]1CNCCc2ccc(Cl)cc21 [Lorcaserin],,,,,additional weight lost per year ([1]; obese subjects during the medication period): 3.2 to 3.6 kg
"CCCCCCCCCCC[C@@H](C[C@@H]1OC(=O)[C@H]1CCCCCC)OC(=O)[C@H](CC(C)C)NC=O [orlistat, Orlistat]",,,,,"body weight lost ([1]; obese patients, within 12 months): 2.9 to 3.4 kg"
ATCYRRTGR [D4],no significant effect,3.55,,,short-term feed intake vs HFD group [3]: no significant effect
ATRYCRTGR [D6],no significant effect,3.78,,,short-term feed intake vs HFD group [3]: no significant effect
GTCYCRTGR [D7],significant difference in feed intake,8.08,significantly lower than that of the HFD group,significantly increased,
GTCYKRTGR [D2],significant difference in feed intake,9.45,significantly lower than that of the HFD group,significantly increased,
GTRYCRTGR [D10],significant difference in feed intake,11.06,significantly lower than that of the HFD group,significantly increased,
GTRYKRTGR [D8],significant difference in feed intake,10.07,significantly lower than that of the HFD group,significantly increased,
RTCYCRTGR [D9],significant difference in feed intake,11.09,significantly lower than that of the HFD group,significantly increased,
RTCYKRTGR [D5],significant difference in feed intake,11.8,significantly lower than that of the HFD group,significantly increased,
RTRYKRTGR [D1],significant difference in feed intake,11.62,significantly lower than that of the HFD group,significantly increased,
semaglutide,,,,,"average weight lost [1, 5]: 15.3 kg; average weight lost, of initial body weight [1, 5]: 14.9%; mean body mass index (BMI) drop [1, 5]: 5.54"
